IC50 data for 2 substances are collected here from US20120003667A1, “ELECTROPHORETIC TAG-BASED IN VITRO ASSAY TO QUANTIFY DIMERIZATION OF P66 AND P51 SUB-UNITS OF HIV-1 REVERSE TRANSCRIPTASE (RT)” (priority 2007, published 2012).

As usually defined, the IC50 is the concentration at which inhibition is half-maximal.

For assay [1], the target named is T1, heterodimerization of p66 and p51 (Human immunodeficiency virus type 1 group M subtype B, UniProt P12497).
T1 construct: active form of HIV-1 RT is a heterodimer containing two polypeptides, p66 and p51
The note with it: literature comparison values; cited from earlier work.

For assay [2], the target named is T2, His-p51/FLAG-p66 RT heterodimer (Human immunodeficiency virus type 1 group M subtype B, UniProt P12497).
T2 construct: The gene for the 66 kDa subunit of HIV-1 RT; The gene for the 51 kDa subunit of HIV-1 RT; made in house; host or cells: E. coli
Nature of the assay: Microplate eTag assay to monitor p66-p51 RT dimerization, in the presence of drugs. The note with it: drug concentration varied from 0 μM to 100 μM; released eTag quantitated; read-out: IC50 (heterodimerization of p66 and p51). The assay is classed as binding. The protocol: The assay was performed by first capturing His-tagged p51 on Ni^2+-NTA microplates, and then adding FLAG-tagged p66 to form the heterodimer. To the heterodimer complex was added a solution of eTag covalently linked to FLAG antibodies resulting His-p51/FLAG-p66 RT heterodimer complexed to an eTag immobilized on the microplates. After washing to remove unbound material, the eTag was cleaved by the addition of methylene blue, and the amount of released eTags was measured and quantitated by electrophoretic separation.

Consider “[2′,5′-bis-o-(butyldimethylsilyl)-3′-spiro 5′-(4′-amino-1′,2′-oxothiole-2′,2′-dioxide] [TSAO]”, for which the IC50 in assay [1] was 6.7 µM; in assay [2], 6.4 µM.

Turning to calmodulin [CAM], the 50% inhibitory concentration (IC50) is 1.9 µM in assay [1] and 3.7 µM in assay [2].
